What all share (assay type): cell-based, human
Experiment [1] deals with MOLT-4 cells. The experiment in a line: Cell cycle analysis by flow cytometry, MOLT-4. The settings on record: 80 nM, +VE-821 = 1 h preincubation. The method, then:
Cellular DNA content was quantified by flow cytometry. Cells were treated with drugs for 2, 24, and 48 h. For experiments with inhibitors, cells were subjected to 1 h preincubation with VE-821. CLA, CLA-FMOR, CLA-FPIP, or CLA-FPIR was added, and incubation continued for the indicated times under the same conditions. After incubation was completed, cells were collected, washed twice with PBS, and fixed in 70% ethanol. After ethanol fixation (at least 24 h at 4 °C), cells were washed in PBS and centrifuged at 7,000 × g for 10 min at 4 °C. Pelleted cells were stained by adding 300 µL PBS containing PI and RNase at final concentrations of 75 µM and 20 µg/mL, respectively. This was followed by 1 h incubation in total darkness at 37 °C. Stained cells were analyzed using a flow cytometer (Becton Dickinson, San Jose, CA, USA). The cell populations at specific phases of the cell cycle were quantified from a standard count of 10,000 cells using FlowJo cytology software (Ashland, OR, USA)[39],[40].
(A flow cytometer gives signals particle by particle.)

Experiment [2] deals with γH2AX in HL-60 cells. The experiment in a line: H2AX (phospho S139) In-Cell ELISA, HL-60. The settings on record: HL-60, 48 h, versus control cells. On the procedure:
The level H2AX protein phosphorylated Ser139 was measured in tested leukemia cells by using of In-Cell ELISA, ICE assay kit. The cells were seeded on 96-well plates (100 × 10^3/well) and 48 h later, incubated with the appropriate compounds. In some experimental variants, cells were preincubated for 1 h with VE-821 (10 µM). The cells were fixed by adding a final concentration of 4% paraformaldehyde solution (10 min, room temperature). After 2 h of Block Solution incubation, cells were treated with a highly specific antibody. A rabbit monoclonal antibody specific to H2AX (phospho S139) was used (at 1:100, 2 h incubation). Next Secondary Antibody Solution (at 1:1000) were added to the cells. The measurements were obtained on a fluorescence plate reader at an excitation wavelength of 680 nm and emission at 694 nm. The cells were PBS washed and 100 µL of Janus Green Stain was added to each well of the plate (5 min., room temperature). The data were collected at excitation wavelength of 750 nm and emission at 800 nm channel (Fluoroskan Cary Eclipse). Antibody signal intensity was normalized to the total amount using Janus Green cell-stain.
On the technique in general: An ELISA detects its analyte on a solid surface through an enzyme-linked reagent.

The test system of experiment [3] is dCK in MOLT-4 cells. The experiment in a line: Deoxycytidine kinase activity, MOLT-4. The settings on record: MOLT-4, 24 h incubation. The method, then: Deoxycytidine kinase activity was measured in accordance with the manufacturer’s protocol. The cells, at final concentration were plated at 1 × 10^6 cells per 24-well plates and cultured with the tested compounds for 24 h. Some cells were preincubated with an ATR kinase inhibitor (VE-821) for 1 h at 37 °C before adding the tested compounds. After drug treatment, the cells were washed with PBS and resuspended in an ice-cold cytosol extraction buffer containing 1 mM phenylmethylsulfonyl fluoride (PMSF) and a protease inhibitor cocktail. The cell lysate was centrifuged at 10,000 × g for 30 min at 4 °C. The protein concentration was determined using the Bradford method. The supernatant (cytosolic fraction) was collected and stored at −80 °C. The clarified cytoplasm extracts, dCK standards, and blank control were added to the appropriate microtiter plate wells with a biotin-conjugated polyclonal antibody prepared specifically for dCK. Avidin conjugated to horseradish peroxidase (HRP) was added to each microplate well and incubated. Then, a TMB substrate solution was added to the plate. […] The enzyme-substrate reaction was terminated by addition of a sulfuric acid solution. The color change was measured spectrophotometrically at a wavelength of 450 nm using a microplate reader (BioTek).

For experiment [4], the system named is caspase-3/7 in MOLT-4 cells. Briefly: Caspase 3/7 assay, MOLT-4. The settings on record: MOLT-4, 48 h. The method, then: The activities of caspases-3 and −7 were estimated with CellEvent™ Caspse-3/7 Green Detection Reagent (Thermo Fisher Scientific) according to the manufacturer’s protocol. The cells were seeded on 96-well plates (15 × 10^3/ well) and 24 h later, incubated with the appropriate drugs for 24 h or 48 h. The cells were fixed by adding a final concentration of 4% paraformaldehyde solution (10 min, room temperature). Cells were labeled with CellEvent™Caspase-3/7 Green Detection Reagent (5 µM), followed by Hoechst 33342 (5 µg/ml) for 15 minutes in complete medium3. Caspase-3/7 Green Detection Reagent was diluted into PBS with 5% FBS to avoid fluorescence background. […] Fluorescence intensity was measured using a Fluoroskan Ascent FL plate reader (Labsystem, Sweden). Cysteine protease activity was expressed as a ratio of fluorescence of the drug-treated samples to the corresponding untreated controls (taken as 100%). In some experimental variants, cells were preincubated for 1 h with VE-821 (10 µM) or Z-FA-FMK (caspas-3 inhibitor, 0.5 µM) to confirm that the fluorescence observed in both control and drug-treated cells was due to the presence of caspase-3/7 in samples. […]

On to `OC[C@H]1O[C@@H](n2cnc3c(N=CN4CCOCC4)nc(Cl)nc32)C[C@@H]1O` [CLA-FMOR, [6-deamino-6-(N′, N′-3′-oxa-1′, 5′-pentamethyleneformamidine)] cladribine], for which the “MOLT-4 (48h) S, percentage share of cell cycle phase” value in experiment [1] was 46%. In addition, in experiment [2], the “increase in γH2AX level” value is ~ 2.4 fold. In addition, the dCK activity entry in experiment [3] is on record as “highest dCK activity”. In experiment [4], the caspase-3/7 level entry was “highest changes”.

These data come from paper PMC6773697, “Antileukemic activity of novel adenosine derivatives” (Scientific Reports, 2019).
